The text below walks through data of patent US11319289B2, “5-hydroxy pyridine-based compound for use as P2X1 and P2X3 receptor antagonist and pharmaceutical composition comprising same” (GWANGJU INSTITUTE OF SCIENCE AND TECHNOLOGY, priority 2017, dated 2022).

One may read the ED50 as the dose at which the effect has come halfway, by size or by number of responders.

The test system of test [1] is SNL rats (mechanical allodynia). Put plainly: Antiallodynic effect (von Frey) in spinal nerve ligation (SNL) rats. It is filed as in vivo, rat. To be noted: 1 μg, intrathecal administration. Here is the method:
(§1) 3-1. Evaluation of In Vivo Efficacy
(§2) The antiallodynic effects (mechanical allodynia) were evaluated using rats according to a previously reported protocol. In order to evaluate the withdrawal threshold, rats (naive, SNL and CIPN) were placed on a plastic mesh floor of individual plastic cages. The rats were allowed to acclimate to the environment for 30 minutes and examined after intrathecal or intravenous administration to the caudal vein. The control group received the same volume of vehicle (intrathecal administration of saline or DMSO, intravenous administration of DMSO:PEG:PBS=1:6:3 v/v %) as the experimental groups. Evaluation of the mechanical withdrawal threshold was measured in responses to the application of calibrated von Frey filaments (Stoelting, Wood Dale, Ill., USA) to the hind paw of the rats through the holes on the mesh floor underneath the cage using the ‘up and down method’. A series of eight von Frey filaments (0.4, 0.7, 1.2, 2.0, 3.6, 5.5, 8.5, and 15 g) was applied perpendicular to the sole of the hind paw for 5 seconds while the head was bent. Active withdrawal or flinching of the paw was considered as a positive reaction. The absence of response in the rats, when a pressure was applied to 15 g von Frey filament, was used as a cut-off value. Only rats with definite allodynia (i.e., mechanical withdrawal threshold: less than 4 g after SNL or less than 5 g after CIPN) were tested. The rats after termination of the experiments were euthanized through an overdose of sevoflurane. The withdrawal threshold data for the von Frey filament test was calculated as % MPE (maximum possible effect) based on the following Calculation Equation: % MPE=[(Post-drug threshold−Post-injured baseline threshold)/(Cutoff threshold−post-injured baseline threshold)×100]. Dose-response data were analyzed using Scheffe's post hoc test and one-way analysis of variance (ANOVA).

The subject of test [2] is neuropathic pain (NeP) animal models. The test is described as follows: Efficacy in neuropathic pain (NeP) animal models, model not specified. It is filed as in vivo, rat. Conditions: Rattus norvegicus, read-out: ED50 of clinical drugs for NeP. The protocol: as §1, §2

For the compound `CC(C)C[C@H](CN)CC(=O)O` [pregabalin, reference compound], the “antiallodynic efficacy, MPE %” value in test [1] worked out at 65±9%. Moreover, the ED50 in test [2] worked out at 4.21 mg/kg.
